{"source": "ChEMBL document CHEMBL2384934", "about": "“Discovery of 3-phenyl-1H-5-pyrazolylamine derivatives containing a urea pharmacophore as potent and efficacious inhibitors of FMS-like tyrosine kinase-3 (FLT3)” (Bioorg Med Chem, 2013)", "key": {"[1]": {"tested_on": "Mus musculus", "assay": "Toxicity in nu/nu mouse xenografted with human MOLM13 cells at 1 to 10 mg/kg, iv qd administered on days 1 to 5 and day 8 to 12", "format": "organism-based, MOLM-13", "parameters": "route intravenous", "conditions": "in vivo"}, "[2]": {"tested_on": "MOLM-13", "assay": "Antitumor activity against human MOLM13 cells xenografted in nu/nu mouse at 3 mg/kg, iv qd administered on days 1 to 5 and days 8 to 12", "format": "functional, organism-based", "parameters": "dose 3 mg/kg"}, "[3]": {"tested_on": "Mus musculus", "assay": "Toxicity in mouse assessed as loss of body weight at 25 mg/kg, iv for 5 days", "format": "organism-based", "parameters": "dose 25 mg/kg, route intravenous", "conditions": "in vivo, 120 h"}, "[4]": {"tested_on": "Mus musculus", "assay": "Toxicity in mouse assessed as mortality at 25 mg/kg, iv for 5 days", "format": "organism-based", "parameters": "dose 25 mg/kg, route intravenous", "conditions": "in vivo, 120 h"}, "[5]": {"assay": "Oral bioavailability in Sprague-Dawley rat at 10 mg/kg", "format": "ADME, organism-based", "conditions": "in vivo"}, "[6]": {"assay": "Half life in Sprague-Dawley rat at 2 mg/kg, iv", "format": "ADME, organism-based", "parameters": "dose 2 mg/kg, route intravenous", "conditions": "in vivo"}, "[7]": {"assay": "Volume of distribution at steady state in Sprague-Dawley rat at 2 mg/kg, iv", "format": "ADME, organism-based", "parameters": "dose 2 mg/kg, route intravenous", "conditions": "in vivo, read-out: Vdss"}, "[8]": {"assay": "AUC (0 to infinity) in Sprague-Dawley rat at 2 mg/kg, iv", "format": "ADME, organism-based", "parameters": "time infinity, dose 2 mg/kg, route intravenous", "conditions": "plasma"}, "[9]": {"biological_target": "T1, Receptor-type tyrosine-protein kinase FLT3 (Homo sapiens, UniProt P36888, ITD)", "T1 sequence (P36888 whole entry, looked up, change not shown)": "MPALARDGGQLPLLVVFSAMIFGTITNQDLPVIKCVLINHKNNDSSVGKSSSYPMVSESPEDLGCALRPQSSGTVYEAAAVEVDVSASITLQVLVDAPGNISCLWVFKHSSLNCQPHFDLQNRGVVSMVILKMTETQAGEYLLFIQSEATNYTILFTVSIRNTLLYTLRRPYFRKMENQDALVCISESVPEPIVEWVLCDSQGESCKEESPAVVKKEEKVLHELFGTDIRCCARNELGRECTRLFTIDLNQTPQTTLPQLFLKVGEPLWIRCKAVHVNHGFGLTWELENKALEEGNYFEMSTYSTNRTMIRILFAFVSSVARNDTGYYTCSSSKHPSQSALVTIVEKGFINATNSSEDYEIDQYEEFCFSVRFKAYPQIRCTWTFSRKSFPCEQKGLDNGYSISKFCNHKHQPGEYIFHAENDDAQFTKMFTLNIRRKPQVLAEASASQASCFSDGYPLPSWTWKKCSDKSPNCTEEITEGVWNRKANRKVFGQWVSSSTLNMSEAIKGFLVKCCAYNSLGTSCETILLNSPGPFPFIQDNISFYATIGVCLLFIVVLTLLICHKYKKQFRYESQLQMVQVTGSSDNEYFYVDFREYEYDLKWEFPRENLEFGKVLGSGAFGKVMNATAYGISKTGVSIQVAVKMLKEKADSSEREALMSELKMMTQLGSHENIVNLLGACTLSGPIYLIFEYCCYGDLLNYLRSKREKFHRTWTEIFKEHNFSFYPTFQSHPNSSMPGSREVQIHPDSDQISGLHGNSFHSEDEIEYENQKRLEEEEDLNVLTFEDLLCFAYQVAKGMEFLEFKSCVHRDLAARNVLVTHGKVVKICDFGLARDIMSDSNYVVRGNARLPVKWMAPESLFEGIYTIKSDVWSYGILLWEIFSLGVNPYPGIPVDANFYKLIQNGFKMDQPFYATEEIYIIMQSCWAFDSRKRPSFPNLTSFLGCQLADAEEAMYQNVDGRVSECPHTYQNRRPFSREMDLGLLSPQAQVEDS", "assay": "Inhibition of FLT3/ITD mutant-mediated stat5 phosphorylation in human MV4-11 cells after 1 hr by Western blot analysis", "format": "cell-based"}, "[10]": {"biological_target": "T1, Receptor-type tyrosine-protein kinase FLT3", "assay": "Inhibition of FLT3/ITD mutant phosphorylation in human MV4-11 cells after 1 hr by Western blot analysis", "format": "cell-based"}, "[11]": {"tested_on": "MV4-11", "assay": "Cytotoxicity against human MV4-11 cells harboring FLT3/ITD mutant after 72 hrs by MTS assay", "format": "functional", "conditions": "MV4-11, 72 h"}, "[12]": {"biological_target": "Platelet-derived growth factor receptor beta (Homo sapiens) (UniProt P09619)", "assay": "Inhibition of PDGFRB (unknown origin) at 1 uM by kinase Glo assay"}, "[13]": {"biological_target": "Platelet-derived growth factor receptor alpha (Homo sapiens) (UniProt P16234)", "assay": "Inhibition of PDGFRA (unknown origin) at 1 uM by kinase Glo assay"}, "[14]": {"biological_target": "Hepatocyte growth factor receptor (Homo sapiens) (UniProt P08581)", "assay": "Inhibition of MET (unknown origin) at 1 uM by kinase Glo assay"}, "[15]": {"biological_target": "Serine/threonine-protein kinase mTOR (Homo sapiens) (UniProt P42345)", "assay": "Inhibition of FRAP1 (unknown origin) at 1 uM by kinase Glo assay"}, "[16]": {"biological_target": "Serine/threonine-protein kinase Chk1 (Homo sapiens) (UniProt O14757)", "assay": "Inhibition of CHK1 (unknown origin) at 1 uM by kinase Glo assay"}, "[17]": {"biological_target": "T2, AMP-activated protein kinase (AMPK) alpha-1/beta-1/gamma-1 (Homo sapiens) (UniProt P54619+Q9Y478+Q13131)", "T2 sequence (P54619 whole entry)": "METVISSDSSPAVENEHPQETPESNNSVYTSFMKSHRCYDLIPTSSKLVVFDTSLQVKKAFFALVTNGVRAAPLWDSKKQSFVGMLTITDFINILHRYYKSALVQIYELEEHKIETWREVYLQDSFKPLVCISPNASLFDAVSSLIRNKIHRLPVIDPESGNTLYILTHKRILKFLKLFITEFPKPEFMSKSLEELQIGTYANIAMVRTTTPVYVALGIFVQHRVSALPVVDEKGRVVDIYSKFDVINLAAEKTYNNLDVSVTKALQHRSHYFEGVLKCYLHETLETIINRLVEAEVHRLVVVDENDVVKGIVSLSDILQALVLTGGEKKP", "T2 sequence (Q13131 whole entry partner)": "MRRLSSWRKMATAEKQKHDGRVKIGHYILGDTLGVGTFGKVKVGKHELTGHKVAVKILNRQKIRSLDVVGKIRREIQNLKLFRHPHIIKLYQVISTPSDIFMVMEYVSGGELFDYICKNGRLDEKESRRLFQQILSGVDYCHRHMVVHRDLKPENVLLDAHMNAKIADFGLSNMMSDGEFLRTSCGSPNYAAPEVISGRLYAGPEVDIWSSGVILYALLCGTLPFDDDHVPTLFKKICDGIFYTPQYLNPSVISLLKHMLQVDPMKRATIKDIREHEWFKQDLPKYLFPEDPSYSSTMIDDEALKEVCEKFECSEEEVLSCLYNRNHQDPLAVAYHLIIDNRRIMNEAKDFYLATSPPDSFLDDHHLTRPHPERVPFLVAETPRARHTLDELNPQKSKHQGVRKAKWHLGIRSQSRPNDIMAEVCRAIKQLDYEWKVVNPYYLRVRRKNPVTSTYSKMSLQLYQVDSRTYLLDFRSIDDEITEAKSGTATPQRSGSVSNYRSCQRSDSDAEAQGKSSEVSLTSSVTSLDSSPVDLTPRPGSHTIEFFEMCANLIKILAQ", "T2 sequence (Q9Y478 2-270 partner limits assumed)": "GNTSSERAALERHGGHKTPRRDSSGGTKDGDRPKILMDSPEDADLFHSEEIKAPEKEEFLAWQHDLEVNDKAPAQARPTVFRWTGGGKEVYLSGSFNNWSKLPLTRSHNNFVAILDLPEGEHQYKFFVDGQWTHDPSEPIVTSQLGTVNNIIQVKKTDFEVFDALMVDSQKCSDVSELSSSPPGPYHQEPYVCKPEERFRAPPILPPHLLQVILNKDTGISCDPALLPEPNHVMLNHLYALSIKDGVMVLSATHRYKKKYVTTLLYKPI", "assay": "Inhibition of AMPK A1/B1/G1 (unknown origin) at 1 uM by kinase Glo assay", "format": "protein-complex assay"}, "[18]": {"biological_target": "Tyrosine-protein kinase receptor TYRO3 (Homo sapiens) (UniProt Q06418)", "assay": "Inhibition of TYRO3 (unknown origin) at 1 uM"}, "[19]": {"biological_target": "Angiopoietin-1 receptor (Homo sapiens) (UniProt Q02763)", "assay": "Inhibition of TEK (unknown origin) at 1 uM"}, "[20]": {"biological_target": "Ribosomal protein S6 kinase beta-1 (Homo sapiens) (UniProt P23443)", "assay": "Inhibition of RPS6KB1 (unknown origin) at 1 uM"}, "[21]": {"biological_target": "High affinity nerve growth factor receptor (Homo sapiens) (UniProt P04629)", "assay": "Inhibition of NTRK1 (unknown origin) at 1 uM"}, "[22]": {"biological_target": "Macrophage-stimulating protein receptor (Homo sapiens) (UniProt Q04912)", "assay": "Inhibition of MST1R (unknown origin) at 1 uM"}, "[23]": {"biological_target": "Mitogen-activated protein kinase 8 (Homo sapiens) (UniProt P45983)", "sequence (P45983 whole entry)": "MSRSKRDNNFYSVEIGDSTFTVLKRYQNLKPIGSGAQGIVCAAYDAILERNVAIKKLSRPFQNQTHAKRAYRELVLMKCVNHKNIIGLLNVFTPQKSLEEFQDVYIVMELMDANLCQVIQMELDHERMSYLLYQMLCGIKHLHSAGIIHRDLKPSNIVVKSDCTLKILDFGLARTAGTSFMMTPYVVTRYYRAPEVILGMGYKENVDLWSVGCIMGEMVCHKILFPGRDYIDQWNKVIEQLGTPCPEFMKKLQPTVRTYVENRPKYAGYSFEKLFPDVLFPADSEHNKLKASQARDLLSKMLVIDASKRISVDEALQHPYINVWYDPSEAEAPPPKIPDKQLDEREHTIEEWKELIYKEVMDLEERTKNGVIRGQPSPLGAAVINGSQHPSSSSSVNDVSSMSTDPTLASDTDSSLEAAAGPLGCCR", "assay": "Inhibition of MAPK8 (unknown origin) at 1 uM"}, "[24]": {"biological_target": "Tyrosine-protein kinase JAK3 (Homo sapiens) (UniProt P52333)", "assay": "Inhibition of JAK3 (unknown origin) at 1 uM"}, "[25]": {"biological_target": "Tyrosine-protein kinase JAK1 (Homo sapiens) (UniProt P23458)", "assay": "Inhibition of JAK1 (unknown origin) at 1 uM"}, "[26]": {"biological_target": "Tyrosine-protein kinase JAK2 (Homo sapiens) (UniProt O60674)", "assay": "Inhibition of JAK2 (unknown origin) at 1 uM"}, "[27]": {"biological_target": "Inhibitor of nuclear factor kappa-B kinase subunit epsilon (Homo sapiens) (UniProt Q14164)", "assay": "Inhibition of IKBKE (unknown origin) at 1 uM"}, "[28]": {"biological_target": "Insulin-like growth factor 1 receptor (Homo sapiens) (UniProt P08069)", "assay": "Inhibition of IGF1R (unknown origin) at 1 uM"}, "[29]": {"biological_target": "Inhibitor of nuclear factor kappa-B kinase subunit beta (Homo sapiens) (UniProt O14920)", "assay": "Inhibition of IKBKB (unknown origin) at 1 uM"}, "[30]": {"biological_target": "Glycogen synthase kinase-3 beta (Homo sapiens) (UniProt P49841)", "assay": "Inhibition of GSK3B (unknown origin) at 1 uM"}, "[31]": {"biological_target": "Receptor-type tyrosine-protein kinase FLT3 (Homo sapiens) (UniProt P36888)", "sequence (P36888 whole entry)": "as the sequence (P36888 whole entry, looked up, change not shown) above", "assay": "Inhibition of FLT3 (unknown origin) at 1 uM"}, "[32]": {"biological_target": "Vascular endothelial growth factor receptor 1 (Homo sapiens) (UniProt P17948)", "assay": "Inhibition of FLT1 (unknown origin) at 1 uM"}, "[33]": {"biological_target": "Receptor tyrosine-protein kinase erbB-2 (Homo sapiens) (UniProt P04626)", "sequence (P04626 whole entry)": "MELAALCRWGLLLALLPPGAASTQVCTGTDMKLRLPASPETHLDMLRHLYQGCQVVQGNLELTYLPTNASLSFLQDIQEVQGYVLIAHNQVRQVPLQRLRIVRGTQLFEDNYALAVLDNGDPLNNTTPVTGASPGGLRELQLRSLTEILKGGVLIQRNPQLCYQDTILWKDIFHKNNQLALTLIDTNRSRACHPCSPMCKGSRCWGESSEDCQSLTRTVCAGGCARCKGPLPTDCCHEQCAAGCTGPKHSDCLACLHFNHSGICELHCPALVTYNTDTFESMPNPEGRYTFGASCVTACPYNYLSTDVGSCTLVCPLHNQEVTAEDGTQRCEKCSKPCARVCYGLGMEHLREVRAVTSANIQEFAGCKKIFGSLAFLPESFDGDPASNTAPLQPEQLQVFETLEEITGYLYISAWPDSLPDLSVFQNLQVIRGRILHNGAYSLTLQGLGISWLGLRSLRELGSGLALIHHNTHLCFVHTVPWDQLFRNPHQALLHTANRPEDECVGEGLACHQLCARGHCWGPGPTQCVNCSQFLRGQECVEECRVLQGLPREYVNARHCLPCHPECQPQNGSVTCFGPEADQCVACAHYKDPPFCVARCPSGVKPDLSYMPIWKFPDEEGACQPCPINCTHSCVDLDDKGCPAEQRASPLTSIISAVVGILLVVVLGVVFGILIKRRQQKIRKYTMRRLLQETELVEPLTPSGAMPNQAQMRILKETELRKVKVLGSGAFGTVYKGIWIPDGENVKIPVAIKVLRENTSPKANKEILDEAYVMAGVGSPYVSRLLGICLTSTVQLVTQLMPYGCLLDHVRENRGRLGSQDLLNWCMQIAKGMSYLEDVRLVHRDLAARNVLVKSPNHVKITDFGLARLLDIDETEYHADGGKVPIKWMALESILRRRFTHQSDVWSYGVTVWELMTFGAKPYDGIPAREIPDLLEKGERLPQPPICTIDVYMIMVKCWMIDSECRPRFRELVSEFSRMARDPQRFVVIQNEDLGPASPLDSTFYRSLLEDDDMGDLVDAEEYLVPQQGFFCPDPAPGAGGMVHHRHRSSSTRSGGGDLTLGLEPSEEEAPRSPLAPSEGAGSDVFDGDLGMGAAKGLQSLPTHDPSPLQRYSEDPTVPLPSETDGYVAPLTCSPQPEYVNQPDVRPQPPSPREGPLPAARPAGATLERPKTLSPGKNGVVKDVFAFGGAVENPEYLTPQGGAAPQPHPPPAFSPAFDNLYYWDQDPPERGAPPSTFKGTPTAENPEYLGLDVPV", "assay": "Inhibition of ERBB2 (unknown origin) at 1 uM"}, "[34]": {"biological_target": "Fibroblast growth factor receptor 1 (Homo sapiens) (UniProt P11362)", "assay": "Inhibition of FGFR1 (unknown origin) at 1 uM"}, "[35]": {"biological_target": "Ephrin type-A receptor 2 (Homo sapiens) (UniProt P29317)", "assay": "Inhibition of EPHA2 (unknown origin) at 1 uM"}, "[36]": {"biological_target": "Macrophage colony-stimulating factor 1 receptor (Homo sapiens) (UniProt P07333)", "sequence (P07333 whole entry)": "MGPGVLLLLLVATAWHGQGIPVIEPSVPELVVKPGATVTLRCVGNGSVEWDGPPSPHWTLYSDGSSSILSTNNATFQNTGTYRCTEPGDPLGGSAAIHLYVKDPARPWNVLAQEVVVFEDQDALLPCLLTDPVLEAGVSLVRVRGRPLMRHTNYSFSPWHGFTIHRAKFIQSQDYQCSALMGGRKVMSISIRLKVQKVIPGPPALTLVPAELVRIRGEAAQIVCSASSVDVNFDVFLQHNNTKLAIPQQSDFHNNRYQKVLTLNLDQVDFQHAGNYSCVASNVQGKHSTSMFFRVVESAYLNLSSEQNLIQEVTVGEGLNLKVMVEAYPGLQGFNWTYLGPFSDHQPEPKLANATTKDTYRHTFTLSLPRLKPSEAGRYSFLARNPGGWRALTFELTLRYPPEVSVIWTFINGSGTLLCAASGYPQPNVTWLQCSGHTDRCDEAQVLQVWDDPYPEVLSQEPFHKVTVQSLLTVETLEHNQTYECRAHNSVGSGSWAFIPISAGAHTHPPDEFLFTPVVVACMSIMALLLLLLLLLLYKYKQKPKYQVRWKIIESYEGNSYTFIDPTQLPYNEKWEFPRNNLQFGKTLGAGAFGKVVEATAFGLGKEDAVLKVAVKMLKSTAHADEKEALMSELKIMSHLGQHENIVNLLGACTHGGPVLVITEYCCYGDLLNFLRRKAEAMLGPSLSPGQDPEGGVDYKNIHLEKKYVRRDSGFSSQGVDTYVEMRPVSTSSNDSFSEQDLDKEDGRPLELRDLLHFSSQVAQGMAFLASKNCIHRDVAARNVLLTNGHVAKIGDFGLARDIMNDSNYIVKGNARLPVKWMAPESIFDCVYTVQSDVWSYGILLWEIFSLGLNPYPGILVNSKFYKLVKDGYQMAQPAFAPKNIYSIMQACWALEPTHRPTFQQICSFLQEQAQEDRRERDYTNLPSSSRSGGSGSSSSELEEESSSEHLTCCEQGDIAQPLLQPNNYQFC", "assay": "Inhibition of CSF1R (unknown origin) at 1 uM"}, "[37]": {"biological_target": "Serine/threonine-protein kinase MRCK alpha (Homo sapiens) (UniProt Q5VT25)", "assay": "Inhibition of MRCKA (unknown origin) at 1 uM"}, "[38]": {"biological_target": "Aurora kinase B (Homo sapiens) (UniProt Q96GD4)", "assay": "Inhibition of AURKB (unknown origin) at 1 uM"}, "[39]": {"biological_target": "T2, AMP-activated protein kinase (AMPK) alpha-1/beta-1/gamma-1 (Homo sapiens)", "assay": "Inhibition of Ampk A1/B1/G1 (unknown origin) at 1 uM", "format": "protein-complex assay"}, "[40]": {"tested_on": "MOLM-13", "assay": "cells", "conditions": "Homo sapiens, MOLM-13, 72 h"}}, "note": "Calls of active or inactive are those of the source. The rule behind the calls is not given here."}
{"smiles": "CC(C)(C)c1cc(NC(=O)NCc2ccc(-c3cc(NC(=O)c4ccc(OCCN5CCOCC5)cc4)[nH]n3)cc2)no1", "values": [{"measurement": "Activity", "setting": "[1]", "result": "Non-toxic"}, {"measurement": "inhibition", "setting": "[2]", "result": "Active"}, {"measurement": "Activity", "setting": "[3]", "result": "Non-toxic"}, {"measurement": "Activity", "setting": "[4]", "result": "Non-toxic"}, {"measurement": "bioavailability", "setting": "[5]", "result": 1, "unit": "%"}, {"measurement": "half-life", "setting": "[6]", "result": 6.2, "unit": "h"}, {"measurement": "Vd", "setting": "[7]", "result": 3.6, "unit": "L/kg"}, {"measurement": "AUC(0-inf)", "setting": "[8]", "result": 3140, "unit": "ng·h/mL"}, {"measurement": "IC50", "setting": "[9]", "result": 1, "unit": "nM"}, {"measurement": "IC50", "setting": "[10]", "result": 1, "unit": "nM"}, {"measurement": "GI50", "setting": "[11]", "result": 2, "unit": "nM"}, {"measurement": "inhibition", "setting": "[12]", "result": 97, "unit": "%"}, {"measurement": "inhibition", "setting": "[13]", "result": 85, "unit": "%"}, {"measurement": "inhibition", "setting": "[14]", "result": 40, "unit": "%"}, {"measurement": "inhibition", "setting": "[15]", "result": -1, "unit": "%"}, {"measurement": "inhibition", "setting": "[16]", "result": 2, "unit": "%"}, {"measurement": "inhibition", "setting": "[17]", "result": 48, "unit": "%"}, {"measurement": "inhibition", "setting": "[18]", "result": 24, "unit": "%"}, {"measurement": "inhibition", "setting": "[19]", "result": 83, "unit": "%"}, {"measurement": "inhibition", "setting": "[20]", "result": 41, "unit": "%"}, {"measurement": "inhibition", "setting": "[21]", "result": 98, "unit": "%"}, {"measurement": "inhibition", "setting": "[22]", "result": 13, "unit": "%"}, {"measurement": "inhibition", "setting": "[23]", "result": -3, "unit": "%"}, {"measurement": "inhibition", "setting": "[24]", "result": 27, "unit": "%"}, {"measurement": "inhibition", "setting": "[25]", "result": 82, "unit": "%"}, {"measurement": "inhibition", "setting": "[26]", "result": 79, "unit": "%"}, {"measurement": "inhibition", "setting": "[27]", "result": -5, "unit": "%"}, {"measurement": "inhibition", "setting": "[28]", "result": -1, "unit": "%"}, {"measurement": "inhibition", "setting": "[29]", "result": -2, "unit": "%"}, {"measurement": "inhibition", "setting": "[30]", "result": 2, "unit": "%"}, {"measurement": "inhibition", "setting": "[31]", "result": 100, "unit": "%"}, {"measurement": "inhibition", "setting": "[32]", "result": 99, "unit": "%"}, {"measurement": "inhibition", "setting": "[33]", "result": -1, "unit": "%"}, {"measurement": "inhibition", "setting": "[34]", "result": 48, "unit": "%"}, {"measurement": "inhibition", "setting": "[35]", "result": 19, "unit": "%"}, {"measurement": "inhibition", "setting": "[36]", "result": 95, "unit": "%"}, {"measurement": "inhibition", "setting": "[37]", "result": -2, "unit": "%"}, {"measurement": "inhibition", "setting": "[38]", "result": 79, "unit": "%"}, {"measurement": "inhibition", "setting": "[39]", "result": 94, "unit": "%"}, {"measurement": "GI50", "setting": "[40]", "result": 3, "unit": "nM"}]}
